# Data as given in EP1515965B1, “PHENYLAMINOPYRIMIDINES AND THEIR USE AS RHO-KINASE INHIBITORS” (Bayer Schering Pharma Aktiengesellschaft, priority 2002, dated 2003).
# Like-named read-outs stand apart in the source and are kept apart here.
# How the values were obtained:
# Rho-Kinase II (ROKα) = biological target: T1, Rho-Kinase II (ROKα) (Rattus norvegicus, UniProt Q62868); assay: Inhibition of recombinant Rho-kinase II (ROKα), 33P-phosphate incorporation into S6 substrate peptide; format: biochemical; conditions: recombinant Rho-Kinase II (Upstate Biotechnology), S6 Phosphate-Acceptor-Peptide, 33P-ATP, 20 min at 37°C
# T1 construct: purchased Upstate Biotechnology
# Excerpt: (§1) In einem in vitro-Assay mit rekombinanter Rho-Kinase-II wird die Hemmung des Enzyms untersucht. Die gefäßrelaxierende Wirkung wird an Phenylephrin-induzierten Kontraktionen isolierter Ringe der Kaninchen-Arteria-Saphena bestimmt. Die Eignung der erfindungsgemäßen Verbindungen zur Behandlung von kardiovaskulären Erkrankungen kann durch Untersuchung der blutdrucksenkenden Wirkung an narkotisierten Ratten gezeigt werden.
# Die Aktivität der Rho-Kinase wird durch den Einbau von ^33P-Phosphat in ein Substratpeptid bestimmt. Dazu wird kommerziell erhältliche Rho-Kinase II (Upstate Biotechnology) in Gegenwart des S6 Phosphate-Acceptor-Peptides mit den Testsubstanzen oder einer Lösungsmittelkontrolle 10 min bei 37°C vorinkubiert. Anschliessend wird die Kinase-Reaktion durch Zugabe von ^33P-markiertem ATP gestartet. Nach 20 min bei 37°C wird die Reaktion durch Zugabe von H3PO4 gestoppt. Aliquots werden auf Filter pipettiert, die Filter gewaschen und anschließend mit Scintillator beschichtet. Die Radioaktivität der am Filter gebundenen ^33P-markierten Peptide wird in einem Micro-Beta-Counter gemessen. Der IC50-Wert entspricht der Konzentration einer Testsubstanz bei welcher der Rho-Kinase katalysierte Einbau von ^33P in das Peptid im Vergleich zu einer Lösungsmittelkontrolle um 50 % gehemmt ist. Die experimentellen Daten sind in der folgenden Tabelle zusammengestellt.
# [1] = system: Kaninchen-Arteria-Saphena; assay: Vasorelaxant effect in vitro: phenylephrine-induced contractions of isolated rabbit saphenous artery rings
# Excerpt: as §1
# 3 mm breite Ringe der isolierten Kaninchen-Arteria-Saphena werden einzeln in 5 ml-Organbäder mit 37°C warmer, carbogenbegaster Krebs-Henseleit-Lösung gebracht. Der Gefäßtonus wird isometrisch erfasst und registriert. Kontraktionen werden durch Zugabe von 3x10^-8 g/ml Phenylephrin induziert und nach 4 min wieder ausgewaschen. Nach mehreren Kontrollzyklen wird die zu untersuchende Substanz mit jedem weiteren Durchgang in steigender Dosierung vorinkubiert und die darauffolgende Kontraktion mit der Höhe der letzten Kontrollkontraktion verglichen. Es wird die Konzentration errechnet, die erforderlich ist, um die Höhe des Kontrollwertes um 50 % zu reduzieren (IC50). Die experimentellen Daten sind in der folgenden Tabelle zusammengestellt.
# [2] = isolated rings of rabbit Arteria saphena, contraction induced by 3x10^-8 g/ml Phenylephrin, concentration reducing control contraction by 50 %, read-out: IC50
# T1 sequence (Q62868 whole entry): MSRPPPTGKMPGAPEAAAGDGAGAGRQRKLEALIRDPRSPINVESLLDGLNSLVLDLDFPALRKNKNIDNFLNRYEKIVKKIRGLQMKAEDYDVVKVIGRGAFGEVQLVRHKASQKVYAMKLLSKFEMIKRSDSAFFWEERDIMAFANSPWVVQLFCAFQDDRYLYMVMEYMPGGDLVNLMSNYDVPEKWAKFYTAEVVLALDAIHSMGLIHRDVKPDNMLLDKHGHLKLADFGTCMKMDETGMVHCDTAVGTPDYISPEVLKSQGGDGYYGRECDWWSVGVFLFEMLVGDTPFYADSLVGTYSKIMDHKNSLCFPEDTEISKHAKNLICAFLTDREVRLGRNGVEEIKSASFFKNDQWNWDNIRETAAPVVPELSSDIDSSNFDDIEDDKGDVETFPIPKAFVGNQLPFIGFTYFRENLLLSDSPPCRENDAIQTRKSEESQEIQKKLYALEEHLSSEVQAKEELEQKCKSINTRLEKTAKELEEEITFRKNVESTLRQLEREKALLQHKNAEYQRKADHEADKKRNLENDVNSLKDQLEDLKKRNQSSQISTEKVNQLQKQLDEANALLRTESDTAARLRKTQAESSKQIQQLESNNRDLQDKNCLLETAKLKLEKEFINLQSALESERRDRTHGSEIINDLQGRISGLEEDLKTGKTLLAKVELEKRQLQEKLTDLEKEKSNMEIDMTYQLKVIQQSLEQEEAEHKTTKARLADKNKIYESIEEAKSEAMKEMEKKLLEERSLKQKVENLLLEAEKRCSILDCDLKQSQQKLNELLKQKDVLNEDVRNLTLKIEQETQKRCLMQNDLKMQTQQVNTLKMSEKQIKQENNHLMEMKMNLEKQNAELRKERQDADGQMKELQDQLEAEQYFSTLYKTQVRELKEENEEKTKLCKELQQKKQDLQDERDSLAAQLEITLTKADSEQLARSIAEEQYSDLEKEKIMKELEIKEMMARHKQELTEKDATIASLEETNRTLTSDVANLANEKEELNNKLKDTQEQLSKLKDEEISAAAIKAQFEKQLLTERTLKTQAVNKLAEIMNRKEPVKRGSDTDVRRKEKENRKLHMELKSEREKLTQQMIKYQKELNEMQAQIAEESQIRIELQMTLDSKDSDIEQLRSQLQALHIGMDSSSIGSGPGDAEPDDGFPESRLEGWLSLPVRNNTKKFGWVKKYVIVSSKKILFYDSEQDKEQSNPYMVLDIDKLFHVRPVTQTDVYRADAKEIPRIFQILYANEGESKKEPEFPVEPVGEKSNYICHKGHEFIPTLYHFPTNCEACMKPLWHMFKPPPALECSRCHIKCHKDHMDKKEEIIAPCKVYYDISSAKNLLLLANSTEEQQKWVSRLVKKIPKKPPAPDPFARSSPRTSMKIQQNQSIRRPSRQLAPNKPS
smiles,measurement,setting,value
"Nc1nc(Nc2ccc(Sc3ccncc3)c(F)c2)cc(-c2ccc3ncccc3c2)n1 [Beispiel 1, N-[2-Amino-6-(6-chinolinyl)-4-pyrimidinyl]-N-[3-fluor-4-(4-pyridinylsulfanyl)-phenyl]amin]",IC50,Rho-Kinase II (ROKα),7 nM
same,IC50,[1]; [2],760 nM
Nc1nc(Nc2ccc(Sc3ccncc3)c(F)c2)cc(N2C[C@H]3CCCN[C@H]3C2)n1 [Beispiel 20],IC50,Rho-Kinase II (ROKα),11 nM
same,IC50,[1],1700 nM
Nc1nc(Nc2cc(F)c(Sc3ccncc3)c(Cl)c2)cc(N2C[C@H]3CCCN[C@H]3C2)n1 [Beispiel 22],IC50,Rho-Kinase II (ROKα),6 nM
same,IC50,[1]; [2],900 nM
Nc1nc(Nc2ccc(Sc3ccncc3)c(F)c2)cc(Oc2cccc(Cl)c2)n1 [Beispiel 56],IC50,Rho-Kinase II (ROKα),70 nM
Nc1nc(Nc2cc(F)c(Sc3ccncc3)c(F)c2)cc(N2C[C@H]3CCCN[C@H]3C2)n1 [Beispiel 59],IC50,Rho-Kinase II (ROKα),5 nM
same,IC50,[1]; [2],360 nM
